Legend:
Assay type in all cases: physicochemical
[1] = Slurry experiments of Form A and Hydrate HA in media with different water activities
Experimental: Form A is stable at water activities of aw=0.7 and below, whereas the hydrate is stable at aw=0.9 and above. At 40° C. Form A is stable at water activities of aw=0.8 and below, whereas the hydrate is stable at aw>0.95.

Humidity controlled XRPD = experiment: Humidity controlled XRPD
[2] = Solid form transformation / decomposition upon heating; details: heating
Experimental: DSC thermograms were recorded with a TA Discovery DSC instrument using heat flux compensation (TA Instruments, USA). The TA Discovery instrument was calibrated for temperature and enthalpy according to the manufacturer's instructions using certified reference substances like indium. About 2 mg of sample material was sealed in a standard pin-holed aluminum pan and heated in the DSC from 0° C. to 300° C., at a heating rate of 10° C./min. Dry nitrogen gas, at a flow rate of 50 ml/min was used to purge the DSC equipment during the measurement.
Thermogravimetric analysis was performed using a TA Discovery TGA instrument (TA Instruments, USA). About 2-10 mg of sample material was sealed in a standard aluminum pan with pierced lid and heated in the TGA from 30° C. to 250° C., at a heating rate of 10° C./min. Dry N2 gas, at a flow rate of 20 ml/min was used to purge the TGA equipment during the measurement.

## O=C1CC2(CCN(C(=O)NCc3ccc(F)cc3)CC2)Nc2ccc(F)cc21 [Hydrate HA, 6′-fluoro-N-(4-fluorobenzyl)-4′-oxo-3′,4′-dihydro-1′H-spiro[piperidine-4,2′-quinoline]-1-carboxamide]
[1]; 25° C.
  Water activity (aw) at which the form is stable: ≥ 0.9
[1]; 40° C.
  Water activity (aw) at which the form is stable: > 0.95
Humidity controlled XRPD; about 12 hours at 5% RH
  Form change after exposure to low humidity: XRPD pattern changed to Form E
Humidity controlled XRPD; relative humidity decreased from 40% RH to 5% RH at 25° C.
  Stability of form in humidity controlled XRPD: remains stable
[2]
  Temperature of transformation into Form E: about 70 °C
